Test results as given in patent US7960349B2 (Bristol-Myers Squibb Company, priority 2006, dated 2011).
*1 amine or outer side, *2 acyl side, *3 side chain or, on linkers, in order; H or OH if unused. Where a SMILES comes first, the peptide text is derived from it. Primed or numbered codes have the meaning given here. [ ]: non-standard residue; d: D form. The star is where a group is joined. ξ: configuration not given here. X1 = 4‑(2′-methylphenyl)‑3‑pyridylalanine, Cc1ccccc1-c1ccncc1C[C@H](N[*:1])C(=O)[*:2]; Ala(6-(2-MePh)pyridin-3-yl) = Cc1ccccc1-c1ccc(C[C@H](N)C(=O)O)cn1; Phe(4-(2-Et-4-HO-Ph)) = CCc1cc(O)ccc1-c1ccc(C[C@H](N)C(=O)O)cc1; Bip(2'-Et-4'-OMe) = CCc1cc(OC)ccc1-c1ccc(C[C@H](N)C(=O)O)cc1; X2 = Cc1ccccc1-c1ncc(C[C@H](N[*:1])C(=O)[*:2])cn1; αMePhe(2,6-F2) = C[C@](N)(Cc1c(F)cccc1F)C(=O)O; αMePhe(2-F) = C[C@](N)(Cc1ccccc1F)C(=O)O; ξαMePhe(2-F) = CC(N)(Cc1ccccc1F)C(=O)O; αMeP = C[C@@]1(C(=O)O)CCCN1; dNMeA = CN[C@H](C)C(=O)O; ξαMeP = CC1(C(=O)O)CCCN1; Aib = CC(C)(N)C(=O)O; Moc = COC(=O)*

B1: Compound of SEQ ID NO: 157 (peptide)
peptide: Moc-H[αMeP]EGT[αMePhe(2-F)]THD[Phe(4-(2-Et-4-HO-Ph))][X1]-NH2

Key:
[1] = Dog pharmacokinetic study; format: in vivo; settings: sc 67 μg/kg; vehicle propylene glycol/pH 7.4 phosphate buffer (1:1)
Description: The pharmacokinetic parameters of the Compounds of SEQ ID NO: 9, 118, 151 and 158 were determined in male beagle dogs (n=3-4, 14±1 kg). Following an overnight fast, each animal received the Compounds of SEQ ID NO: 9, 118, 151 and 158 either as an intravenous bolus via femoral vein (67 μg/kg) or by subcutaneous injection given at near the shoulder blades (67 μg/kg). Each animal received both intravenous and subcutaneous doses with a one-week washout between doses following a crossover design. The dosing vehicle for both routes of administration was propylene glycol:pH 7.4 phosphate buffer (50:50) or 0.2 M Tris (pH 8.0). Serial blood samples were collected in EDTA-containing microcentrifuge tubes at predose, 0.083, 0.25, 0.5, 0.75, 1, 2, 4, 6, 8, 24, and 30 hours post-dose after intravenous administration; at predose, 0.25, 0.5, 0.75, 1, 2, 4, 6, 8, 24, and 30 hours post-dose after subcutaneous administration. Approximately 0.3 mL of blood was collected at each time point. Blood samples were immediately centrifuged at 4° C. The obtained plasma was frozen with dry ice and stored at −20° C. Plasma drug levels were determined using the LC-MS/MS assay described below.
Plasma samples from the in vivo dog study were prepared for analysis by precipitating plasma proteins with two volumes of AcCN containing an internal standard. The samples were vortex mixed and the precipitated proteins were removed by centrifugation. The resulting supernatants were transferred to a 96-well plate and 10 μL were injected for TFC-LC/MS/MS analysis.
The TFC-HPLC system (Cohesive TX-1 Flux, Aria 2300 System) consisted of a loading pump, an eluting pump, and a CTC PAL autosampler (Cohesive Technologies, Franklin, Mass.). The columns used were Phenomenex Synergi Fusion-RP (C18, 2.0×50 mm, 4μ) (Phenomenex, Torrance, Calif.) as the analytical column and Turbo-Flow (TF) HTLC Cyclone column (0.5×50 mm) (Cohesive Technologies, Franklin, Mass.) as the extraction column for on-line sample processing. The mobile phase A consisted of 10 mM ammonium formate and 0.1% formic acid in water and mobile phase B consisted of 0.1% formic acid in AcCN. Turbo-Flow Chromatography was used to obtain a cleaner sample. A rapid gradient elution was used for analyte separation. The samples were injected onto the Turbo-Flow HTLC Cyclone column and analytes were separated from biological fluid components with using 100% H2O at 1.5 mL/min. The TF column was back flushed and analytes were back eluted from the TF to HPLC analytical column using a ramp to 60% B over 2 min and held there for 30 seconds at 0.3 mL/min to separate and to elute the analytes from the HPLC column into the mass spectrometer. Both columns were washed for an additional minute and then both columns were re-equilibrated at initial conditions.
The HPLC was interfaced to a Sciex API 4000 mass spectrometer (Applied Biosystems, Foster City, Calif.) and was equipped with a TurboIonspray ionization source. Ultra high purity nitrogen was used as the nebulizing and turbo-gas. The temperature of turbo-gas was set at 300° C. and the interface heater was set at 60° C. Selected Reaction Monitoring (SRM) was used for data acquisition. Multiple charged ion species, i.e. (M+2H)^2+ for Compound of SEQ ID NO: 158 were selected in Q1 and were collisionally dissociated with high purity nitrogen at a pressure of 3.5×10^−3 torr in Q2 to form specific product ions which were subsequently monitored in Q3. The ion transitions and voltages are summarized below (Table 4).
The standard curve concentrations, ranging from 1 to 1000 nM, were analyzed in duplicate. The curves were fitted with a linear regression weighted by reciprocal concentration […]. Quality control (QC) samples, prepared in blank matrix at the same concentrations as the standards were also analyzed in each analytical set. […]

[2] = molecular target: T1, Human GLP-1 Receptor (Homo sapiens, UniProt P43220); test: Cyclic AMP determination in CHO cells expressing human GLP-1 receptor; format: cell-based; settings: human GLP-1 receptor
T1 construct: Full-length human glucagon-like peptide 1 receptor was stably expressed in CHO-K1 cells; expressed in transfected cells; host or cells: CHO-K1 (clone CHO-GLP1R-19)
Description: CHO-GLP-1R-19 cells (20,000 in 100 μl of media) were plated into each well of a 96-well tissue culture microtiter plate and incubated overnight in a 5% CO2 atmosphere at 37° C. On the day of the assay, cells were washed once with 100 μl of phosphate-buffered saline (PBS). A Biomek 2000 was used to serially dilute all peptides prior to beginning the assay. Serial dilutions were carried out in 100% DMSO.
50 μl of each cAMP standard was added by hand and 70 μl of mix reagent (Amersham cAMP SPA kit) was added using the multidrop. […] This standard curve was used to convert CPM to pmol of cAMP.
Cell plates and peptide plates were loaded onto the Platemate. The media was aspirated from the wells and discarded. 100 uL per well of the peptide/buffer mixture were then added from the peptide plates to initiate the assay. After 30 min. of incubation the peptide/buffer was removed and 50 uL of the lysis reagent 1 solution was added per well. The plate was kept for one hour at RT or overnight if refrigerated and sealed.
Dose dependence for Compounds was determined at half-log concentrations in duplicate. […] A standard curve was determined using known amounts of cyclic AMP. […] The data were analyzed by nonlinear regression curve fitting (4 parameter sigmoidal dose-response curve) to determine the EC50 of the compounds.

[3] = tested on: ob/ob mice; test: Intraperitoneal glucose tolerance test (ipGTT) in ob/ob mice after sc injection; format: in vivo, mouse; settings: 10 nmol/kg sc; relative to vehicle-treated group
Description: Peptides were dissolved in an appropriate vehicle at a concentration in nmol/ml equivalent to the dose that was to be administered in nmol/kg so that each mouse would receive the same volume/weight of dosing solution. Male C57BL/6-ob/ob mice (10 weeks old) were randomized into groups of 6 mice per group based on fed plasma glucose and body weight. After an overnight fast, mice were weighed and placed in the experimental lab. After 30 min in the environment, the mice were bled via tail tip at −30 min and immediately injected subcutaneously (sc) with vehicle or the peptide dissolved in vehicle (0.1 ml solution/100 g body weight). At time 0 the mice were bled and then injected intraperitoneally with 50% glucose (2 g/kg) to initiate the intraperitoneal glucose tolerance test (ipGTT). The mice were bled 30, 60, 120 and 180 min after the glucose injection. Blood samples were drawn into potassium EDTA, placed on ice during the study and subsequently centrifuged for 10 min at 3000 rpm at 4° C. Plasma samples were diluted 11-fold for glucose analysis in the Cobas System. Another 5 μl plasma sample was diluted 5-fold with 20 μl of Sample Diluent (Insulin ELISA assay kit, Crystal Chem. Inc.) and stored at −20° C. for subsequent analysis using the Ultra Sensitive Mouse Insulin ELISA kit (Crystal Chem Inc.).

[4] = molecular target: Full-length human glucagon-like peptide 1 receptor (human, UniProt P43220 24-463); test: cell-based or functional assay

T1 sequence (P43220 24-463): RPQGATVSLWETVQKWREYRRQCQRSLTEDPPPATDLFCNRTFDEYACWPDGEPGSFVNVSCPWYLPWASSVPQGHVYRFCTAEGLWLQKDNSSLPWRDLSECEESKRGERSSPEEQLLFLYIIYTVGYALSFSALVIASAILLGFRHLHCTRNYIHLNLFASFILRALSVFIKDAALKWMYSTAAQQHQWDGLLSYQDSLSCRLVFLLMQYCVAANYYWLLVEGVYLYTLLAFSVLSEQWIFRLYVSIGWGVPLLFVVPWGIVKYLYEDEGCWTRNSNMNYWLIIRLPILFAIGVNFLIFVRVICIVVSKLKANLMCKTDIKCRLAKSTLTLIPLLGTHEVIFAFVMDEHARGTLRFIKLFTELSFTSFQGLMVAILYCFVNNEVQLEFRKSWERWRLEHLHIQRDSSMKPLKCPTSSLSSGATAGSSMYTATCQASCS

| Molecule | Exposure in dogs (sc@67 μg/kg) [1] [µM·h] | other results |
| --- | --- | --- |
| CCc1cc(OC)ccc1-c1ccc(C[C@H](NC(=O)[C@H](CC(=O)O)NC(=O)[C@H](Cc2c[nH]cn2)NC(=O)[C@@H](NC(=O)[C@](C)(Cc2ccccc2F)NC(=O)[C@@H](NC(=O)CNC(=O)[C@H](CCC(=O)O)NC(=O)[C@]2(C)CCCN2C(=O)[C@@H](N)Cc2c[nH]cn2)[C@@H](C)O)[C@@H](C)O)C(=O)N[C@@H](Cc2ccc(-c3ccccc3C)nc2)C(N)=O)cc1 [SEQ ID NO: 120] (H-H[αMeP]EGT[αMePhe(2-F)]THD[Bip(2'-Et-4'-OMe)][Ala(6-(2-MePh)pyridin-3-yl)]-NH2) | 1.116 |  |
| CCc1cc(O)ccc1-c1ccc(C[C@H](NC(=O)[C@H](CC(=O)O)NC(=O)[C@H](Cc2c[nH]cn2)NC(=O)[C@@H](NC(=O)C(C)(Cc2ccccc2F)NC(=O)[C@@H](NC(=O)CNC(=O)[C@H](CCC(=O)O)NC(=O)C2(C)CCCN2C(=O)[C@H](Cc2c[nH]cn2)NC(=O)OC)[C@@H](C)O)[C@@H](C)O)C(=O)N[C@@H](Cc2ccc(-c3ccccc3C)nc2)C(N)=O)cc1 (stereo partly drawn) [SEQ ID NO: 157] (Moc-H[ξαMeP]EGT[ξαMePhe(2-F)]THD[Phe(4-(2-Et-4-HO-Ph))][Ala(6-(2-MePh)pyridin-3-yl)]-NH2) |  | Emax ([2]; CHO, percent of maximal GLP-1 stimulated activity): 99.4%; Mean Hill [2]: 1.9 |
| CCc1cc(OC)ccc1-c1ccc(C[C@H](NC(=O)[C@H](CC(=O)O)NC(=O)[C@H](CO)NC(=O)[C@@H](NC(=O)[C@](C)(Cc2ccccc2F)NC(=O)[C@@H](NC(=O)CNC(=O)[C@H](CCC(=O)O)NC(=O)[C@@H](C)NC(=O)[C@@H](N)Cc2c[nH]cn2)[C@@H](C)O)[C@@H](C)O)C(=O)N[C@@H](Cc2ccc(-c3ccccc3C)nc2)C(N)=O)cc1 [SEQ ID NO: 149] (H-H[dA]EGT[αMePhe(2-F)]TSD[Bip(2'-Et-4'-OMe)][Ala(6-(2-MePh)pyridin-3-yl)]-NH2) | 0.94 |  |
| CCc1cc(OC)ccc1-c1ccc(C[C@H](NC(=O)[C@H](CC(=O)O)NC(=O)[C@H](CO)NC(=O)[C@@H](NC(=O)[C@](C)(Cc2c(F)cccc2F)NC(=O)[C@@H](NC(=O)CNC(=O)[C@H](CCC(=O)O)NC(=O)[C@]2(C)CCCN2C(=O)[C@H](Cc2c[nH]cn2)NC(=O)OC)[C@@H](C)O)[C@@H](C)O)C(=O)N[C@@H](Cc2ccc(-c3ccccc3C)nc2)C(N)=O)cc1 [SEQ ID NO: 140] (Moc-H[αMeP]EGT[αMePhe(2,6-F2)]TSD[Bip(2'-Et-4'-OMe)][Ala(6-(2-MePh)pyridin-3-yl)]-NH2) | 0.283 |  |
| CCc1cc(OC)ccc1-c1ccc(C[C@H](NC(=O)[C@H](CC(=O)O)NC(=O)[C@H](CO)NC(=O)[C@@H](NC(=O)[C@](C)(Cc2ccccc2F)NC(=O)[C@@H](NC(=O)CNC(=O)[C@H](CCC(=O)O)NC(=O)[C@@H](C)N(C)C(=O)[C@@H](N)Cc2c[nH]cn2)[C@@H](C)O)[C@@H](C)O)C(=O)N[C@@H](Cc2ccc(-c3ccccc3C)nc2)C(N)=O)cc1 [SEQ ID NO: 119] (H-H[dNMeA]EGT[αMePhe(2-F)]TSD[Bip(2'-Et-4'-OMe)][Ala(6-(2-MePh)pyridin-3-yl)]-NH2) | 1.257 |  |
| CCc1cc(OC)ccc1-c1ccc(C[C@H](NC(=O)[C@H](CC(=O)O)NC(=O)[C@H](CO)NC(=O)[C@@H](NC(=O)[C@](C)(Cc2ccccc2F)NC(=O)[C@@H](NC(=O)CNC(=O)[C@H](CCC(=O)O)NC(=O)C(C)(C)NC(=O)[C@@H](N)Cc2c[nH]cn2)[C@@H](C)O)[C@@H](C)O)C(=O)N[C@@H](Cc2cnc(-c3ccccc3C)nc2)C(N)=O)cc1 [SEQ ID NO: 130] (H-H[Aib]EGT[αMePhe(2-F)]TSD[Bip(2'-Et-4'-OMe)][X2]-NH2) | 0.541 |  |
| CCc1cc(OC)ccc1-c1ccc(C[C@H](NC(=O)[C@H](CC(=O)O)NC(=O)[C@H](CO)NC(=O)[C@@H](NC(=O)[C@](C)(Cc2ccccc2F)NC(=O)[C@@H](NC(=O)CNC(=O)[C@H](Cc2c[nH]cn2)NC(=O)C(C)(C)NC(=O)[C@@H](N)Cc2c[nH]cn2)[C@@H](C)O)[C@@H](C)O)C(=O)N[C@@H](Cc2ccc(-c3ccccc3C)nc2)C(N)=O)cc1 [SEQ ID NO: 150] (H-H[Aib]HGT[αMePhe(2-F)]TSD[Bip(2'-Et-4'-OMe)][Ala(6-(2-MePh)pyridin-3-yl)]-NH2) | 0.979 |  |
| CCc1cc(OC)ccc1-c1ccc(C[C@H](NC(=O)[C@H](CC(=O)O)NC(=O)[C@H](CO)NC(=O)[C@@H](NC(=O)C(C)(Cc2ccccc2F)NC(=O)[C@@H](NC(=O)CNC(=O)[C@H](CCC(=O)O)NC(=O)C2(C)CCCN2C(=O)[C@H](Cc2c[nH]cn2)NC(=O)OC)[C@@H](C)O)[C@@H](C)O)C(=O)N[C@@H](Cc2ccc(-c3ccccc3C)nc2)C(N)=O)cc1 (stereo partly drawn) [SEQ ID NO: 139] (Moc-H[ξαMeP]EGT[ξαMePhe(2-F)]TSD[Bip(2'-Et-4'-OMe)][Ala(6-(2-MePh)pyridin-3-yl)]-NH2) | 1.603 | Potency in ob/ob mice: % AUC Reduction in Plasma Glucose in an IP Glucose Tolerance Test after SC Injection of Compound [3]: −63% (p < 0.01) |
| B1 |  | Mean EC50 (nM), stimulation of cAMP synthesis in CHO cells [4]: 0.026 nM; Mean Emax (%), stimulation of cAMP synthesis in CHO cells [4]: 99.4% |
